Test results taken from US11180767B2, “Protease deficient filamentous fungal cells and methods of use thereof” (GLYKOS FINLAND OY, priority 2012, dated 2021).

How the values were obtained:
serine proteases = experiment: IgG degradation by aminobenzamidine purified serine protease fraction F4 with and without PMSF; format: biochemical, Trichoderma reesei; conditions: PMSF 5 mM; pH 5.5, 37°C, 20 hours
Experimental: Serine proteases comprise a major family of proteases that have been identified as antibody degrading enzymes. Accordingly, serine proteases were purified from Trichoderma supernatant. The serine proteases were first affinity purified from fermentation culture supernatants with a p-aminobenzamidine sepharose 4 fast flow resin (GE healthcare #17-5123-10). 15 ml of the fermentation culture supernatant was batch bound to the resin in 35 ml of binding buffer (0.05 M Tris-HCL, 0.5 M NaCl, pH 7.4). After packing and washing the column with the same binding buffer, the column was eluted with 0.05 M glycine, pH 3.0. The fractions were then neutralized with 1M Tris HCL, pH 8.8.
In total 1.7 mg of protein was purified from the affinity column. When the peak fractions were run on a 4-15% SDS-PAGE gel, several major bands (˜110 kD, 53 kD, 39 kD, 29 kD) and many more minor bands were seen. The peak fraction protein mixture (F4) was then tested for protease activity by incubated a sample of the F4 with human IgG1 in sodium citrate buffer (50 mM, pH 5.5) at 37° C. for 20 hours. The samples were incubated both in the presence and absence of the serine protease inhibitor PMSF (5 mM). The incubated samples were then analyzed by immunoblotting with an anti-IgG heavy chain AP conjugate antibody (Sigma #A3188) and an anti-IgG light chain AP conjugate antibody (Sigma #A3812) diluted 1:30,000 in TBST.

[1] = tested on: rituximab antibody producing strain; experiment: Treatment of T. reesei rituximab cultures with inhibitors; format: cell-based, Trichoderma reesei
Experimental: The effectiveness of the inhibitors was also tested with the rituximab antibody producing strain, which contains a VALEKR linker sequence and the pep1 deletion. This strain was grown in triplicate, in small flasks both in presence or absence of chymostatin, SBTI, or pepstatin A. The small shake flasks contained 50 ml of TrMM plus lactose (40 g/l), spent grain extract (20 g/l), and buffer with 100 mM PIPPS at pH 5.5. The SBTI inhibitor was added to the culture at final concentrations of either 100 μg/ml or 500 μg/ml. Chymostatin was used at 100 μM, and pepstatin A was used at 10 μM. Each of the three inhibitors was added to the cultures daily on day 2, 3, 4, and 5.
Growth of the cultures was followed daily by pH from day 2 until day 7. […] In the PIPPS buffered cultures, the pH decreased from an initial pH of 5.5 down to a pH of 4.8 after day 6. With chymostatin and pepstatin A the cultures were monitored up to day 7. On day 7 the average pH for the control bottles was 4.6, while the average pH for chymostatin treated cultures was 4.9, and the average pH of pepstatin A treated cultures was 5.0.
Culture supernatant samples (30 μl) were also collected on days 3, 4, and 5 for analysis of antibody production. The analysis was performed by immunoblots using an anti-IgG heavy chain antibody AP conjugate (Sigma #A3188) and an anti-light chain antibody AP conjugate (Sigma #A3812). Each antibody was diluted 1:30,000 in TBST. The full length rituximab heavy chain is about 51 kD, the rituximab light chain CHBI fusion is about 100 kD, and the free rituximab light chain is about 28 kD.

[2] = tested on: M369 human growth hormone strain; experiment: hGH production in 24 well cultures with inhibitors and supplements; format: cell-based, Trichoderma reesei; conditions: 24 well culture, pH 4.5, day 4 immunoblot
Experimental: To evaluate what inhibitors would best stabilize production of hGH, 24 well cultures of these strains were performed. The M369 human growth hormone strain (Δpep1Δtsp1Δslp1Δgap1Δgap2) was grown along with single components or with combinations of the following: trypsin and subtilisin inhibitor SBTI, the acidic protease inhibitor peptide SIP, the acidic protease inhibitor peptide LIP, the aspartic protease inhibitor pepstatin A free peptide, pepstatin A immobilized to agarose beads, the trypsin and subtilisin inhibitor BBI from lima bean, the […] chymostatin, and BSA. Three independent wells were chosen for control wells where no inhibitors or supplements were added. These two strains were grown in 3 ml of TrMM with diammonium citrate without ammonium sulfate, 100 mM PIPPS, 20 g/L spent grain extract, 40 g/L lactose adjusted to pH 4.5. The 24 well plates were shaken at 800 rpm, 85% humidity, and 28° C. The cultures were grown for 6 days and covered with an air permeable membrane.
Inhibitors were added first on day 1 and then daily beginning on day 3. 100 μl samples were taken from the culture wells beginning on day 3. The mycelium was spun down for 5 minutes at 13 k and the supernatant collected. From the culture supernatant 12 μl was loaded in a 4-20% SDS PAGE gel and immunoblotting made on nitrocellulose with mouse anti-hGH antibody (2 μg/ml) and goat anti-mouse IgG AP conjugated secondary antibody diluted 1:10,000 in TBST.
Estimating the expression levels relative to the 200 ng control sample, the control wells produced between 3-6 mg/L of hGH, the BSA (0.25%)/SIP (50 μM)/8BTI (0.2 mg/ml) treatment produced 24.5 mg/L, the SIP (50 μM)/8BTI (0.2 mg/ml) treatment produced 26.6 mg/L, and the pepstatin A beads/SBTI (0.2 mg/ml) addition yielded 24.5 mg/L of hGH. Therefore, using a combination of inhibitors and additives worked best increasing the production levels by at least 4-fold. The critical parameter was to include an aspartic protease inhibitor into the mix.

[3] = tested on: tryptic and chymotryptic proteases; experiment: In vitro inhibitor treatment: rituximab heavy chain degradation in M44 supernatant; format: biochemical, Trichoderma reesei; conditions: 100 μM chymostatin or 1 mg/ml SBTI; M44 supernatant 6 mg/ml, pH 5.5
Experimental: Based on the knowledge that the heavy chain is cleaved by tryptic and chymotryptic proteases, inhibitors of these two enzyme classes were tested against antibody degradation both in vitro and in culture experiments utilizing an antibody producing T. reesei strain. The inhibitors soybean trypsin inhibitor (SBTI) and chymostatin were tested, as they have been previously shown in in vitro experiments to stabilize antibody heavy chains.
Chymostatin and SBTI were analyzed in vitro with culture supernatant. Supernatant from a fed batch fermentor culture was diluted to 6 mg/ml with sodium citrate buffer pH 5.5 (pH 5.5; 28° C.; 20 g/L spent grain extract, 60 g/L lactose). […] The strain was grown in Trichoderma minimal medium supplemented with 20 g/l spent grain extract and 60 g/l lactose at pH 5.5 and 28° C.
To this diluted supernatant 0.05 μg μl of rituximab, 100 μM chymostatin, 1 mg/ml SBTI, or a combination of both inhibitors was added in a total volume of 50 μl and sampled at 0, 1, and 19 hours to assess the early and late degradation of the rituximab antibody heavy chain. The resulting heavy chain products were analyzed by immunoblot using and anti-heavy chain AP conjugated antibody (Sigma #A3188) diluted 1:30,000 in TBST (FIG. 35). […] Additional fragments were generated after 19 hours, the two major products remained.

[4] = tested on: SIP purified proteases (PEP2, PEP3, PEP4, PEP5, GAP1, SLP2); experiment: Protease activity of SIP purified fractions against casein with inhibitors (EnzChek); format: biochemical, Trichoderma reesei; conditions: pH 5.5; for proteases inhibited: SIP, LIP, pepstatin A 60 μM, SBTI 200 μg/ml
Experimental: Protease activity was then tested against casein both in the presence and absence of protease inhibitors. Protease activity against casein was tested using the EnzChek protease assay kit (Molecular probes #E6638, green fluorescent casein substrate). The working stock solution was prepared by diluting the stock to 10 μg ml in 50 mM sodium citrate, pH 5.5. The purified protease fractions (10 μl) were diluted with […] of sodium citrate, pH 5.5. 100 μl of the diluted substrate was combined with the diluted protease fractions in a 96 well sample plate. The plate was then covered and kept at 37° C. for one to three hours. Fluorescence readings were taken at one, two, and three hours with a Varioskan fluorescent plate reader (Thermo Scientific) using 485 nm excitation and 530 nm emission.
The SIP inhibitor peptide, pepstatin A, LIP peptide, SBTI, and chymostatin were used as inhibitors. […] SIP, LIP, and pepstatin A were used at a concentration of 60 μM, and SBTI was used at a concentration of 200 μg/ml.

[5] = tested on: aspartic and glutamic protease; experiment: MAB01 heavy chain degradation by SIP purified proteases with and without SIP inhibitor peptide; format: biochemical, Trichoderma reesei; conditions: overnight 37°C, pH 4.0 and pH 5.5
Experimental: Several additional aspartic proteases were isolated from the T. reesei M277 triple protease deletion strain (pep1, tsp1, slp1). […] The M277 deletion strain was generated as described in Example 4 below. The strain was grown in Trichoderma minimal medium supplemented with 20 g/l spent grain extract, 60 g/l lactose, and 9 g/l casamino acids at pH 5.5 and 28° C. The aspartic proteases were isolated by affinity purification using the SIP peptide (Ac-Phe-Lys-Phe-(AHPPA)-Leu-Arg-NH2) (Kataoka Y. et al. 2005 FEBS Letters 579, pp 2991-2994). The SIP peptide was conjugated to NHS activated agarose resin (Pierce #26196) using the protocol provided by the manufacturer. The SIP affinity resin was used to purify proteases. Fermentation supernatant (15 ml) from the T. reesei M277 strain was then used to batch bind proteases to the resin in 35 ml buffer containing 50 mM sodium acetate, 0.2 M NaCl, pH 3.0 (from fermentation conditions pH 5.5; 28° C.; 9 g/l casaminoacids; 20 g/L spent grain extract, 60 g/L lactose). The column was washed with the same binding buffer and bound protein removed with elution buffer (50 mM Tris-HCL, 1 M NaCl, pH 8.5). […]
The SIP purified proteases were then tested for their ability to degrade the MAB01 antibody heavy chain. […] The collected samples were analyzed by immunoblotting with an anti-IgG heavy chain antibody AP conjugate (Sigma A3188) diluted 1:30,000 in TBST. […]

[6] = tested on: proteases in supernatant from the 6-fold protease deletion strain M400; experiment: Protease stability of proteins spiked into supernatant of the 6-fold protease deletion strain; format: biochemical, Trichoderma reesei; conditions: M400 supernatant pH 4.2, 20 hours, 37°C, 0.05 μg/μl
Experimental: The protease stability of the model proteins IGF1, hGH, and IFNα2b were analyzed by spiking them into supernatant from the 6-fold protease deletion strain (Δpep1Δtsp1Δslp1Δgap1Δgap2Δpep4) M400. The supernatant was collected from a large shake flask culture CAH15. The undiluted supernatant from the shake flask cultivation CAH15 was incubated with the purified model proteins with and without pepstatin A (50 μM) and SBTI (0.2 mg/ml) inhibitors for 20 hours at 37° C. The 5 day culture supernatant pH was around 4.2. The reaction containing 0.05 μg μl of model protein was sampled after 20 hours. 50 mM sodium citrate pH 4.0 spiked with model proteins (0.05 g 1) was used as a buffer control.
From each reaction 10 μl was loaded into an 18% SDS PAGE gel and run for 30 minutes at 200 V. The proteins in the gel were then transferred to nitrocellulose for immunoblotting. The nitrocellulose membrane was blocked for 1 hour at room temperature with 5% milk in TBST buffer. The individual blots were probed with their specific primary antibody to detect the appropriate model protein for 1 hour at room temperature on a shaker. The mouse anti-IGF1 antibody (R&D systems #mab291) was used at 2 μg/ml diluted in TBST. The mouse anti-rhGH antibody (Abeam #ab51232) was used at 2 μg/ml diluted in TBST. The mouse anti-IFNα2b antibody (Abeam #ab9386) was used at 1 μg/ml diluted in TBST. After briefly washing the blot membranes with TBST, the secondary antibody was added for 1 hour at room temperature shaking. The secondary goat anti-mouse AP conjugated antibody (Biorad #170-6520) was diluted 1:10,000 in TBST.
This same spiking experiment as was done with MAB01 to investigate its stability in the 6 protease deletion supernatant with and without inhibitors (FIG. 43). Samples were taken as described above and immunoblotted with an anti-heavy chain AP conjugated antibody (Sigma #A3188). […] There was no obvious benefit having used inhibitors. The antibody was stable in this pH 4.2 supernatant. […]

[7] = third chymostatin culture sample, 100 μM

## O=S(=O)(F)Cc1ccccc1 [PMSF]
Serine proteases
  IgG degradation by F4 serine protease fraction: able to inhibit most of the degradation

## CC(C)C[C@H](NC(=O)[C@@H](NC(=O)N[C@@H](Cc1ccccc1)C(=O)O)[C@@H]1CCN=C(N)N1)C(=O)N[C@H](C=O)Cc1ccccc1 [chymostatin]
[1]; day 5, SBTI 100 or 500 μg/ml, chymostatin 100 μM
  rituximab heavy chain production vs untreated cultures: increased the amount of full length rituximab heavy chain produced
[1]; small shake flasks, inhibitors added daily day 2-5
  effect on culture growth (followed by pH): small reduction in growth
[1]; [7]
  full length rituximab heavy chain: approximately 90%
  heavy chain fragment: ~10%
[2]
  effect on hGH production: improved the amount of full length product observed
[3]
  rituximab heavy chain fragment formation: inhibited the initial production of the 42 kDa fragment
[4]
  proteases inhibited: inhibited SLP2
[4]; FIG. 11
  inhibition of SIP purified protease activity against casein: able to inhibit the SLP2 protease

## Ac-Phe-Lys-Phe-(AHPPA)-Leu-Arg-NH2 (FKFXLR; HELM PEPTIDE1{[ac].F.K.F.[O=C(C[C@H](O)[C@H](Cc1ccccc1)N[*:1])[*:2]].L.R.[am]}$$$$V2.0; SMILES CC(=O)N[C@@H](Cc1ccccc1)C(=O)N[C@@H](CCCCN)C(=O)N[C@@H](Cc1ccccc1)C(=O)N[C@@H](Cc1ccccc1)[C@@H](O)CC(=O)N[C@@H](CC(C)C)C(=O)N[C@@H](CCCNC(=N)N)C(N)=O) [SIP peptide]
[5]
  aspartic and glutamic protease activities against MAB01 heavy chain: inhibited
[2]
  effect on hGH production: noticeable increase in hGH amount
[4]
  proteases inhibited: inhibited both aspartic and glutamic proteases

## IGF1: insulin-like growth factor 1, model protein
[6]
  stability of model protein in supernatant without inhibitors: the majority appeared to be degraded

## hGH: human growth hormone, model protein
[6]
  stability of model protein in supernatant without inhibitors: the majority appeared to be degraded
